Assays:
[1] = In-vivo pharmacokinetics in dogs, oral administration; parameters: species or system male Beijing Marshall beagles; conditions: for AUC(0-inf) / Cmax / half-life: male, beagle, dog, oral 10 mg/kg, plasma; for F: oral 10 mg/kg vs intravenous 1 mg/Kg
Protocol: In this experimental example, the in-vivo pharmacokinetic evaluation was made for dogs by intravenous injection and oral administration.
Experimental methods and conditions: male Beijing Marshall beagles, 12 to 18 months old; the beagles were subjected to administration half an hour after feeding; 5 min, 15 min, 30 min, 1 hr, 2 hr, 4 hr, 8 hr, 24 hr, 48 hr and 72 hr after the beagles were subjected to a single intravenous injection of 1 mg/Kg of a compound to be tested (solvent 5% DMSO/10% Solutol/85% Saline), or 15 min, 30 min, 1 hr, 2 hr, 4 hr, 6 hr, 8 hr, 24 hr, 48 hr and 72 hr after the beagles were subjected to oral intragastric administration of 10 mg/kg (solvent 5% DMSO/10% Solutol/85% Saline), blood was collected from orbits, not less than 50 μL of each sample was collected, and heparin sodium was used for anticoagulation; the collected samples were placed on ice, and the plasma was centrifugally separated within 1 hour for testing. The drug concentration in the plasma was detected by liquid chromatography tandem mass spectrometry (LC/MS/MS), and the pharmacokinetic parameters were calculated by Phoenix WinNonlin software. Embodiment 82 in CN110612294 A was taken as a control sample 1.

[2] = In-vivo pharmacokinetics in mice, oral administration; parameters: species or system male CD1 mice; conditions: for AUC(0-inf) / Cmax / half-life: male, CD1, mouse, oral 10 mg/kg, plasma; for F: oral 10 mg/kg vs intravenous 1 mg/Kg
Protocol: In this experimental example, the in-vivo pharmacokinetic evaluation was made for mice by intravenous injection and oral administration.
Experimental methods and conditions: male CD1 mice, 6 to 8 weeks old; all animals had free access to food and water; 5 min, 15 min, 30 min, 1 hr, 2 hr, 4 hr, 8 hr and 24 hr after the mice were subjected to a single intravenous injection of 1 mg/Kg of a compound to be tested (solvent 5% DMSO/15% Solutol/80% Saline) (saline in the present application all means a saline solution), or 15 min, 30 min, 1 hr, 2 hr, 4 hr, 6 hr, 8 hr and 24 hr after the mice were subjected to oral intragastric administration of 10 mg/kg (solvent 5% DMSO/10% Solutol/85% Saline), blood was collected from orbits, not less than 50 μL of each sample was collected, and heparin sodium was used for anticoagulation; the collected samples were placed on ice, and the plasma was centrifugally separated within 1 hour for testing. The drug concentration in the plasma was detected by liquid chromatography tandem mass spectrometry (LC/MS/MS), and the pharmacokinetic parameters were calculated by Phoenix WinNonlin software. Embodiment 82 in CN110612294 A was taken as a control sample 1.

VCaP cells = assay: Inhibitory effect on VCaP cell proliferation (Cell Titer Glo); type: cell-based; conditions: Homo sapiens, 144 h; for IC50: VCaP cells, 5% FBS and 0.1 nM R1881, 6 days; for Emax: maximum degree of VCaP cell proliferation inhibition, 6 days
Protocol: A tumor cell line Vcap (ATCC Cat. No. CRL-2876) was respectively cultured with DMEM (Gibco Cat. No. 11965-092) medium containing 10% FBS (Gibco Cat. No. 10099-141C). During testing, Vcap cells were replaced with a DMEM culture fluid containing 5% FBS and 0.1 nM R1881 (Sigma Cat. No. R0908). The assay method was as follows:
Vcap cells were seeded to a 384-well plate (Perkin Elmer Cat. No. 6007460) at a cell density of 1200 cells/well and a volume of 20 μL/well; after the cells were incubated overnight in a carbon dioxide incubator (Thermo), the prepared compound solutions with different concentrations were added at a volume of 5 μL/well; meanwhile, a corresponding solvent was provided as a control; after the cells were continuously incubated in the incubator for 6 days, the cell plate and the contents thereof were equilibrated to room temperature; 25 μL of a Cell Titer Glor (Promega Cat. No. G7573) reagent was added to each well; after vibration and uniform mixing, incubation in the dark was performed for 10-30 minutes, and a signal value was detected with Envision microplate reader (PerkinElmer).
A percentage inhibition rate of compound-treated wells was calculated through solvent control wells on the plate, GraphPad prism was used to fit the percentage inhibition rate data corresponding to different concentrations, and IC50 value was calculated by a 4-parameter nonlinear logistic formula.
Emax: a maximum degree of VCaP cell proliferation inhibition. IC50: a compound concentration required to achieve half the maximum degree of VCaP cell proliferation inhibition.

AUC(0-inf) [1] | Cmax [1] | half-life [1] | F [1] | AUC(0-inf) [2] | Cmax [2] | half-life [2] | F [2] | IC50 (VCaP cells) | Compound | Emax (VCaP cells)
14100 ng·h/mL | 482 ng/mL | 1190 min | 44.1% | 18900 ng·h/mL | 1260 ng/mL | 373 min | 68.8% | – | CC1(C)[C@H](NC(=O)c2ccc(N3CCC(CN4CCN(c5ccc6c(=O)n(C7CCC(=O)NC7=O)ncc6c5)CC4)CC3)cc2)C(C)(C)[C@H]1Oc1ccc(C#N)c(Cl)c1 (some centres unmarked) [Compound 1] | –
15400 ng·h/mL | 868 ng/mL | 2060 min | 33.9% | – | – | – | – | 9.7 nM | CC1(C)[C@H](NC(=O)c2ccc(N3CCC(CN4CCN(c5ccc6c(=O)n([C@H]7CCC(=O)NC7=O)ncc6c5)CC4)CC3)cc2)C(C)(C)[C@H]1Oc1ccc(C#N)c(Cl)c1 [Compound 28A] | 74%
– | – | – | – | 13400 ng·h/mL | 677 ng/mL | 475 min | 24.1% | 56 nM | CC1(C)[C@H](NC(=O)c2ccc(N3CCC(CN4CCN(c5ccc6c(=O)n(C7CCC(=O)NC7=O)nc(F)c6c5)CC4)CC3)cc2)C(C)(C)[C@H]1Oc1ccc(C#N)c(Cl)c1 (some centres unmarked) [Compound 29] | 66%
